Experimental data reported in US20020137929A1, “1 - (3-heterocyclylphenyl) isothiourea, -isourea, -guanidine and -amidine herbicidal agents” (Intellectual Property Department, BASF Aktiengesellschaft, priority 1998, published 2002).

Tests used:
CASOB (Sicklepod) = test: Postemergence herbicidal evaluation; format: in vivo, Cassia obtusifolia; details: postemergence
Outline: (§1)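 Scores (0–9) reflect plant stand, vigor, malformation, size, chlorosis and general appearance relative to control, read 4 to 5 weeks after treatment and averaged where tests were repeated. Application: about 0.0156–0.500 kg/ha sprayed at 40 psi onto two-week seedlings.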

[1] = test system: CHEAL (Lambsquarters, Common); test: Postemergence herbicidal evaluation; format: in vivo, Chenopodium album; details: postemergence
Outline: as §1

ECHCG (Barnyardgrass) = test: Postemergence herbicidal evaluation; format: in vivo, Echinochloa crus-galli; details: postemergence
Outline: as §1

ORYSAT (Rice, Tebonnet) [2] = test: Postemergence herbicidal evaluation; format: in vivo, Oryza sativa, (L.) Tebonnet; details: postemergence
Outline: as §1

GALAP (Galium) = test: Preemergence herbicidal evaluation; format: in vivo, Galium aparine; details: rated 4-5 weeks after treatment
Outline: (§2)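 Greenhouse preemergence test: seed-soil mix sown on ~1 inch soil; aqueous acetone spray at equivalent of ~0.0156–0.500 kg/ha; greenhouse-held and watered; scored 0–9 visually at 4–5 weeks.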

SETVI (Foxtail, Green) = test: Preemergence herbicidal evaluation; format: in vivo, Setaria viridis; details: rated 4-5 weeks after treatment
Outline: as §2

[3] = test system: GLXMAW (Soybean, Williams); test: Preemergence herbicidal evaluation; format: in vivo, Glycine max, (L.) Merr. cv Williams; details: rated 4-5 weeks after treatment
Outline: as §2

ORYSAT (Rice, Tebonnet) [4] = test: Preemergence herbicidal evaluation; format: in vivo, Oryza sativa, (L.) Tebonnet; details: rated 4-5 weeks after treatment
Outline: as §2

[5] = test system: TRZAWR (Wheat, Winter, cv Riband); test: Preemergence herbicidal evaluation; format: in vivo, Triticum aestivum; details: rated 4-5 weeks after treatment
Outline: as §2

ZEAMX (Corn, Field) = test: Preemergence herbicidal evaluation; format: in vivo, Zea mays; details: rated 4-5 weeks after treatment
Outline: as §2

CYPIR (Rice Flatsedge) = test: Preemergence weed control under flooded paddy conditions; format: in vivo, Cyperus iria; details: rated 3-4 weeks after treatment
Outline: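 Flooded-pot preemergence screen with silt loam and seeds in the upper 0.5 cm. Dose about 0.0313 to 0.500 kg/ha, delivered into flood water; visual 0-9 score after 3 to 4 weeks.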

MOOVA (Monochoria) = test: as above; format: in vivo, Monochoria vaginalis; details: rated 3-4 weeks after treatment
Outline: (§3)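 Ratings on a 0-9 visual scale cover stand, vigor, malformation, size, chlorosis and overall appearance relative to a control, taken three to four weeks post-treatment. Application was into flood water over freshly sown silt loam at roughly 0.0313 to 0.500 kg/ha.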

[6] = test system: SAGPY (Arrowhead (Pygmaea)); test: as above; format: in vivo, Sagittaria pygmaea; details: rated 3-4 weeks after treatment
Outline: as §3

CYPSE (Flatsedge) = test: Postemergence weed control under flooded paddy conditions; format: in vivo, Cyperus serotinus; details: postemergence weeds, rated 3 to 4 weeks after treatment
Outline: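 Containers holding 3–5 cm weeds and rice at 1.5–2.5 leaves are flooded to 1.5–3 cm above soil. Compound in 50/50 v/v aqueous/acetone is then added directly to the water, about 0.0313–0.500 kg/ha. Plants are kept in the greenhouse and rated 0–9 visually at 3–4 weeks.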

Compound `C#CCOC(=O)CC1SC(=Nc2cc(-n3c(=O)cc(C(F)(F)F)n(C)c3=O)c(F)cc2Cl)N(CC=C)C1=O` (stereo not shown) [Compound 67, 2-Propynyl 3-allyl-2-{{2-chloro-5-[3,6-dihydro-3-methyl-2,6-dioxo-4-(trifluoromethyl)-1(2H)-pyrimidinyl]-4-fluorophenyl}imino}-4-oxo-5-thiazolidineacetate] has a CASOB herbicidal rating (CASOB (Sicklepod); rate 0.0158 kg/ha) of 0.0, a CASOB herbicidal rating (CASOB (Sicklepod); rate 0.0315 kg/ha) of 2.0 and a CASOB herbicidal rating (CASOB (Sicklepod); rate 0.0630 kg/ha) of 3.0. It also gave a CHEAL herbicidal rating ([1]; rate 0.0158 kg/ha) of 4.0, a CHEAL herbicidal rating ([1]; rate 0.0315 kg/ha) of 6.0 and a CHEAL herbicidal rating ([1]; rate 0.0630 kg/ha) of 9.0. For the same compound, the ECHCG herbicidal rating (ECHCG (Barnyardgrass); rate 0.0158 kg/ha) was 3.0, the ECHCG herbicidal rating (ECHCG (Barnyardgrass); rate 0.0315 kg/ha) was 6.0 and the ECHCG herbicidal rating (ECHCG (Barnyardgrass); rate 0.0630 kg/ha) was 7.0. For the same compound, the ORYSAT herbicidal rating (ORYSAT (Rice, Tebonnet) [2]; rate 0.0158 kg/ha) was 4.0, the ORYSAT herbicidal rating (ORYSAT (Rice, Tebonnet) [2]; rate 0.0315 kg/ha) was 4.5 and the ORYSAT herbicidal rating (ORYSAT (Rice, Tebonnet) [2]; rate 0.0630 kg/ha) was 5.0. For the same compound, the “Preemergence herbicidal rating GALAP” value (GALAP (Galium); rate 0.0156 kg/ha) was 0.0, the “Preemergence herbicidal rating GALAP” value (GALAP (Galium); rate 0.0313 kg/ha) was 0.0 and the “Preemergence herbicidal rating GALAP” value (GALAP (Galium); rate 0.0625 kg/ha) was 0.0. The “Preemergence herbicidal rating GALAP” value (GALAP (Galium); rate 0.1250 kg/ha) was 1.0, the “Preemergence herbicidal rating GALAP” value (GALAP (Galium); rate 0.2500 kg/ha) was 0.0 and the “Preemergence herbicidal rating SETVI” value (SETVI (Foxtail, Green); rate 0.0156 kg/ha) was 0.0. For the same compound, the “Preemergence herbicidal rating SETVI” value (SETVI (Foxtail, Green); rate 0.0313 kg/ha) was 0.0, the “Preemergence herbicidal rating SETVI” value (SETVI (Foxtail, Green); rate 0.0625 kg/ha) was 0.0 and the “Preemergence herbicidal rating SETVI” value (SETVI (Foxtail, Green); rate 0.1250 kg/ha) was 6.0. The “Preemergence herbicidal rating SETVI” value (SETVI (Foxtail, Green); rate 0.2500 kg/ha) was 7.0, the “Preemergence herbicidal rating GLXMAW” value ([3]; rate 0.0156 kg/ha) was 0.0 and the “Preemergence herbicidal rating GLXMAW” value ([3]; rate 0.0313 kg/ha) was 1.0. For the same compound, the “Preemergence herbicidal rating GLXMAW” value ([3]; rate 0.0625 kg/ha) was 2.0, the “Preemergence herbicidal rating GLXMAW” value ([3]; rate 0.1250 kg/ha) was 2.0 and the “Preemergence herbicidal rating GLXMAW” value ([3]; rate 0.2500 kg/ha) was 2.0. For the same compound, the “Preemergence herbicidal rating ORYSAT” value (ORYSAT (Rice, Tebonnet) [4]; rate 0.0156 kg/ha) was 0.0, the “Preemergence herbicidal rating ORYSAT” value (ORYSAT (Rice, Tebonnet) [4]; rate 0.0313 kg/ha) was 0.0 and the “Preemergence herbicidal rating ORYSAT” value (ORYSAT (Rice, Tebonnet) [4]; rate 0.0625 kg/ha) was 0.0. The “Preemergence herbicidal rating ORYSAT” value (ORYSAT (Rice, Tebonnet) [4]; rate 0.1250 kg/ha) was 1.0, the “Preemergence herbicidal rating ORYSAT” value (ORYSAT (Rice, Tebonnet) [4]; rate 0.2500 kg/ha) was 1.0 and the “Preemergence herbicidal rating TRZAWR” value ([5]; rate 0.0156 kg/ha) was 0.0. For the same compound, the “Preemergence herbicidal rating TRZAWR” value ([5]; rate 0.0313 kg/ha) was 0.0, the “Preemergence herbicidal rating TRZAWR” value ([5]; rate 0.0625 kg/ha) was 0.0 and the “Preemergence herbicidal rating TRZAWR” value ([5]; rate 0.1250 kg/ha) was 1.0. For the same compound, the “Preemergence herbicidal rating TRZAWR” value ([5]; rate 0.2500 kg/ha) was 1.0, the “Preemergence herbicidal rating ZEAMX” value (ZEAMX (Corn, Field); rate 0.0156 kg/ha) was 0.0 and the “Preemergence herbicidal rating ZEAMX” value (ZEAMX (Corn, Field); rate 0.0313 kg/ha) was 0.0. For the same compound, the “Preemergence herbicidal rating ZEAMX” value (ZEAMX (Corn, Field); rate 0.0625 kg/ha) was 1.0, the “Preemergence herbicidal rating ZEAMX” value (ZEAMX (Corn, Field); rate 0.1250 kg/ha) was 1.0 and the “Preemergence herbicidal rating ZEAMX” value (ZEAMX (Corn, Field); rate 0.2500 kg/ha) was 1.0. The “CYPIR herbicidal effect rating” value (CYPIR (Rice Flatsedge); 0.0313 kg/ha) was 5.0, the “CYPIR herbicidal effect rating” value (CYPIR (Rice Flatsedge); 0.0625 kg/ha) was 5.0 and the “CYPIR herbicidal effect rating” value (CYPIR (Rice Flatsedge); 0.1250 kg/ha) was 5.0. The “CYPIR herbicidal effect rating” value (CYPIR (Rice Flatsedge); 0.2500 kg/ha) was 8.0, the “MOOVA herbicidal effect rating” value (MOOVA (Monochoria); 0.0313 kg/ha) was 9.0 and the “MOOVA herbicidal effect rating” value (MOOVA (Monochoria); 0.0625 kg/ha) was 9.0. The “MOOVA herbicidal effect rating” value (MOOVA (Monochoria); 0.1250 kg/ha) was 9.0, the “MOOVA herbicidal effect rating” value (MOOVA (Monochoria); 0.2500 kg/ha) was 9.0 and the “SAGPY herbicidal effect rating” value ([6]; 0.0313 kg/ha) was 0.0. For the same compound, the “SAGPY herbicidal effect rating” value ([6]; 0.0625 kg/ha) was 4.0, the “SAGPY herbicidal effect rating” value ([6]; 0.1250 kg/ha) was 4.0 and the “SAGPY herbicidal effect rating” value ([6]; 0.2500 kg/ha) was 6.0. The “Herbicidal rating CYPSE” value (CYPSE (Flatsedge); Rate 0.0313 kg/ha) was 0.0, the “Herbicidal rating CYPSE” value (CYPSE (Flatsedge); Rate 0.0625 kg/ha) was 3.0 and the “Herbicidal rating CYPSE” value (CYPSE (Flatsedge); Rate 0.1250 kg/ha) was 3.0. For the same compound, the “Herbicidal rating CYPSE” value (CYPSE (Flatsedge); Rate 0.2500 kg/ha) was 3.0.
